Experimental data as given in PubChem BioAssay (NCI).
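In this assay, cells in 96-well plates receive the compound at five concentrations for 48 hours. Endpoints are linearly interpolated between the surrounding concentrations. At the GI50, growth is halved. TGI denotes the concentration required for complete inhibition of growth.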

Legend:
Assay in all cases: inhibition of tumour cell growth, NCI panel, 48 h
MDA-N = test system: MDA-N
HS 578T breast = test system: HS 578T breast
MDA-MB-231 breast = test system: MDA-MB-231 breast
BT-549 breast = test system: BT-549 breast
KM20L2 colon = test system: KM20L2 colon
DLD-1 colon = test system: DLD-1 colon
M19-MEL melanoma = test system: M19-MEL melanoma

SMILES	TGI (MDA-N) [µM]	TGI (HS 578T breast) [µM]	TGI (MDA-MB-231 breast) [µM]	TGI (BT-549 breast) [µM]	GI50 (HS 578T breast) [µM]	GI50 (MDA-MB-231 breast) [µM]	GI50 (BT-549 breast) [µM]	TGI (KM20L2 colon) [µM]	TGI (DLD-1 colon) [µM]	TGI (M19-MEL melanoma) [µM]	GI50 (MDA-N) [µM]
CCCCCCNC(=O)C1=C(C)NC(C)=C(C(=O)NCCCCCC)C1	> 100	> 100	> 100	> 100							
COc1ccc(/C=C/c2cc(OC)c(OC)c(OC)c2)cc1NC(=O)/C=C/c1ccc(F)cc1		> 100	> 100	> 100	3.79	5.8	4.49				
Cc1nn(C(=O)c2ccccc2O)c2c1C(c1ccccc1)SC(N)=N2 (stereo unspecified)	> 10	> 10	> 10	> 10							
O=C(O)C1CCc2ccc3ccccc3c2C1c1cccc2ccccc12 (stereo unspecified)	52.3	> 100	85.4	38.8							
COc1cc(/C=C/c2cc(C(F)(F)F)[nH]c(=O)n2)ccc1OCc1ccccc1F		> 100	53	20.6	32	13.1	5.04				
COC1=CC23C=CC1[C@@H](c1ccccc1)C2=C(C)C(=O)N3C(=O)NC1CCCCC1 (stereo partly specified)								50.7			
CC1=CSC2=NC(c3ccc(Cl)c(Cl)c3)=CC(c3ccc(Cl)cc3)N12 (stereo unspecified)		> 100	> 100	> 100	> 100	> 100	> 100				
O=C(Oc1ccc(O)c2c(=O)n3c(cc12)[nH]c1ccccc13)c1ccccc1		> 100	42.1	32.2	41.1	6.22	6.35				
Cc1cc2nc3c(C(OC4OC(CO)C(O)C(O)C4O)C(O)CO)nn(-c4ccccc4)c3nc2cc1C (stereo unspecified)								> 100	> 100		
O=C(Nc1ccc(Cl)cc1)Nc1ccc(Cl)c(Cl)c1		85	7.65		4.58	2.34					
S=C(Nc1ccc(-c2nc3ccccc3[nH]2)cc1)NC1CCCCC1			43.1	60.3	26.1	18.1	21.7				
CCCCNc1nc(NC(C)(C)C)nc(NC(C)(C)C)n1		> 100	34.8	> 100	21.1	2.27	19.1				
CCOC(=O)[C@@H](C)C[C@H](Cc1ccccc1)NC(=O)c1csc([C@@H](C[C@H](C(C)C)N(C)C(=O)[C@@H](NC(=O)[C@H]2C[C@H](O[Si](C)(C)C(C)(C)C)CCN2C)C(C)C)OC(C)=O)n1		1.35	1.89	2.53	0.217	0.329	0.285				
COc1cc2c(cc1C)NC(=O)/C2=C\c1cc(OC)c(OC)c(OC)c1		> 100	59.2	> 100	58.3	15.8	29.6				
COc1cc(-c2nc3ccc(C)cc3[nH]2)ccc1OCC(=O)N=Nc1c(O)[nH]c2ccccc12		4.77	3.1	6.56	2	1.64	2.26				
O=C(Nc1ccccc1C(F)(F)F)c1cccc(NC2=C(Cl)C(=O)N(Cc3ccccc3)C2=O)c1		28.5	21.4	45.1	8.27	3.86	8.25				
CCOc1ccc(/C=C/C(=O)c2ccccc2)cc1		56.3	72.8	62	20.4	26	26.4				
Cc1c(CCCl)c(=O)n2c([nH]c3ccccc32)c1C#N	3.33	4.89	3.09	3.63							
CC1(C)C=CC[C@]2(C)[C@H]3CC[C@@H]4[C@H]5[C@H](C(=O)/C=C/c6cccnc6)CC[C@]5(CO)CC[C@@]4(C)[C@]3(C)CC[C@@H]12		3.89	2.67		1.51	1.27					
COc1cc(OC2OC(C)C(O)C(O)C2O)cc2oc(-c3ccc(O)cc3)c(CC=C(C)C)c(=O)c12 (stereo unspecified)		> 100	21.4	> 100	24	6.38	31.2				
CCCC(=O)c1c(NOC2OC(COC(C)=O)C(OC(C)=O)C(OC(C)=O)C2OC(C)=O)nc(OC)n(C)c1=O (stereo unspecified)								> 100	> 100	> 100	
CCN(CC)c1ccc(N=Nc2ccc(-c3nc4cccnc4o3)cc2)cc1								> 100	> 100	> 100	
C=CCn1c(C)nc2cc(Nc3nc(Nc4ccc5nc(C)n(CC=C)c5c4)c4ccccc4n3)ccc21		5.22			2.02						
c1ccc2c(c1)[I+]c1ccccc1-2		> 50	> 50	> 50	> 50	47.6	> 50				

SMILES	TGI (MDA-N) [µM]	TGI (HS 578T breast) [µM]	TGI (MDA-MB-231 breast) [µM]	TGI (BT-549 breast) [µM]	GI50 (HS 578T breast) [µM]	GI50 (MDA-MB-231 breast) [µM]	GI50 (BT-549 breast) [µM]	TGI (KM20L2 colon) [µM]	TGI (DLD-1 colon) [µM]	TGI (M19-MEL melanoma) [µM]	GI50 (MDA-N) [µM]
CC(=O)NC1=N/C(=C/c2cc([N+](=O)[O-])ccc2O)CN1C	> 100		> 100	> 100							
O=[N+]([O-])c1ccc2[nH]cc(-c3c4ccsc4cc4[nH]c5ccc([N+](=O)[O-])cc5c34)c2c1		5.49	5.75	6.36	0.824	1.2	1.49				
Cc1ccc(C(=O)c2oc3ccc4c(C)cc(=O)oc4c3c2C)cc1		> 100	> 100	> 100	19.4	11.1	45.6				
COc1ccc2c(c1)C(=O)CC(N)C2 (stereo unspecified)	> 100	> 100	> 100	> 100							
C=CCNC(=S)N1CC(C)C(=O)Nc2ccccc21 (stereo unspecified)								> 100			
CCN(CC)CCNc1c(OC)cc(C)c2sc3ccccc3c(=O)c12		24.8	10.1	24.2							
Nc1nc(-c2cccc([N+](=O)[O-])c2)c(Br)c(=O)[nH]1		> 100	> 100	> 63							
O=C1c2cc(Br)ccc2-c2c1c1ccc([N+](=O)[O-])cc1c(=O)n2CCCCl		> 72.5	> 96.1	> 63.8	19.5	12.9	2.98				
COc1cc(OC)c(/C=C/c2ccc3ccccc3[n+]2C)c(OC)c1		19.3	12.1	7.3	0.638	1.76	0.401				
CC(=O)Oc1cc(C)ccc1[C@]1(C)CC[C@H](C)/C1=C\Br	7.16	13.9	23.9	17.6	3.03	9.04	4.1				2.36
COc1cc2c(cc1OCc1ccccc1)N=C[C@@H]1C/C(=C/C(=O)NCCCN3C(=O)c4cccc5cccc(c45)C3=O)CN1C2=O		6.51	6.14	1.08	0.539	0.708	0.273				
Nc1c(C(=O)c2ccccc2)sc2nc(-c3cccs3)ccc12		12.7	5.7	11.6	0.474	1.23	0.332				
CN(C)c1ccc(/C=C2\Oc3cc(O)ccc3C2=O)cc1		> 100	> 100	> 100							
Oc1ccc(Br)cc1Sc1cc(Br)ccc1O		25.8	23.2	23	4.28	6.58	8.46				
COc1cc([C@H](C)c2ccc3ccccc3c2)cc(OC)c1OC		> 100	70.9	18.4	0.303	0.877	0.848				
Oc1ccc(N=Nc2ccc(Cl)cc2)cc1	30.6	73.3	24.3	32.6							
COc1cc2nc(-c3ccc(C(F)(F)F)cc3)cc(OCCCN3CCOCC3)c2cc1OC		9.24	4.51	20.9	2.25	0.498	5				
COC(=O)CCC/C=C\C[C@H]1C=CC(=O)/C1=C/C[C@@H](O)CCc1cccc(C(F)(F)F)c1		50	17.1	9.25	12.2	4.65	2.68				
O=c1ccn(C2OC(CO)C(O)C2O)c(=O)[nH]1 (stereo unspecified)	> 1000	> 1000	> 1000	> 1000	> 1000						> 1000
CN(C)CCNc1nc2ccccc2c2c1c1c(n2Cc2ccccc2)-c2ccccc2C1=O		31.5	32.1	32.9	11.3	16.5	16.7				
CCCCCCC/C=C/[C@H]1O[C@]23C(=O)C[C@@]4(C[C@@H](OC5OC(CO)C(O)C(O)C5O)C[C@@H]4[C@H]2C=C1C)OC3=O (stereo partly specified)		> 33.3	16.5	12.9	9.04	6.47	2.06				
CC[N+](CCCCCCCCCC[N+](CC)(c1ccccn1)c1ccccn1)(c1ccccn1)c1ccccn1			13.8	88.9		2.24	0.973				
O=C(Nc1ccccc1)c1ccc(Cl)c([N+](=O)[O-])c1								47.5	> 100	34.3	
